Experimental data reported in US20130190370A1, “Novel Tetrahydronaphalene Antagonists to the Thromboxane A2 (TP) Receptor” (The Trustees of the University of Pennsylvania, priority 2010, published 2013).

Experiments:
[1] = S18886 brain and plasma levels after administration to mice in drinking water; assay type: in vivo
Protocol: Brain and plasma drug levels of S18886 were measured after administration to mice in drinking water, as previously described (Shineman, et al., 2008, J. Neurosci 28:4785-4794). Mice have 20-30 separate drinking bouts over the course of the day (Gannon, et al., 1992, Physiol Behav. 51:515-521), albeit with much greater water consumption during the night. […] In fact, extended exposure to excessively high blood levels of a TP receptor antagonist could increase the risk of bleeding complications due to compromise of platelet function, as it is known that TP receptor knockout mice and TxA2 synthase-deficient mice have prolonged clotting times (Thomas, et al., 1998, J Clin Invest 102:1994-2001; Yu, et al., 2004, Blood 104:135-142). Furthermore, inactivating mutations in the TP receptor have been linked to a dominantly inherited bleeding disorder in humans (Hirata, et al., 1994, J Clin Invest 94:1662-1667).

[2] = in vivo; conditions: female, B6C3HF1, mouse, in vivo, ip, 5 mg/kg
Protocol: One-month old B6C3HF1 female mice were given intraperitoneal injections of compounds at 5 mg/kg. 1 hour after injection, mice were lethally anesthetized with an intraperitoneal injection of ketamine hydrochloride (1 mg/10 g) and xylazine (0.1 mg/10 g) and perfused intracardially with PBS in accordance with protocols approved by the University of Pennsylvania.
Brain samples were homogenized in 10 mM ammonium acetate, pH 5.7 (1:2; w/v) using a handheld sonic homogenizer. Compound from 50 μL of brain homogenate or plasma was extracted with 200 μL acetonitrile, centrifuged, and the supernatant removed for LC/MS/MS analysis. Compounds were detected using multiple reaction monitoring (MRM) of their specific collision-induced ion transitions and quantified using peak areas.
The LC/MS/MS system was comprised of an Agility UPLC, a TQ MS, and controlled using MassLynx software (Waters Corporation, Milford, Mass., USA). Samples were separated on an Aquity BEH C18 column (1.7 μm, 2.1×50 mm) at 35° C. For operation in positive electrospray ionization mode, the mobile phase A was 0.1% (v/v) formic acid, and B was either acetonitrile or methanol with 0.1% (v/v) formic acid. For operation in negative electrospray ionization mode, the mobile phase A was 10 mM ammonium acetate, and B was methanol with 10 mM ammonium acetate, Injections of 5 μL were separated at a flow rate of 0.6 mL/min using a gradient from 5% to 95% B over two minutes followed by wash and re-equilibration steps.
The MS was operated with a desolvation temperature of 450° C. and a source temperature of 150° C. Desolvation and source nitrogen gas flows were 900 L/hr and 50 L/hr, respectively. Collision cell argon gas flow was 0.1 mL/min. Source and analyzer voltages were optimized for each compound using the MassLynx auto tune utility. Compound standards at 1000 ng/mL in 50% acetonitrile were infused at 30 μL/min and combined with flow from the UPLC at 0.6 mL/min and 50% B.
Standard curves were generated from spiked brain homogenate and plasma prepared at 4, 40, 400 and 4000 ng/mL and extracted as above. Peak area was plotted versus concentration and a 1/x weighted linear regression curve was used to quantify the unknowns using the average peak area from triplicate injections,
The following experiments were designed to analyze TP receptor antagonists to determine their relative BBB penetration. The TP receptor antagonists were administered via i.p. injection at 5 mg/kg to normal mice, and brain and plasma compound concentrations were assessed by LC-MS/MS at 1 and 4 hours after dosing.
To examine the blood-brain barrier permeability of these compounds, one-month old B6C3F1 mice were injected at 5 mg/kg and sacrificed 1 hour after injection.

[3] = system: Tg2576 mice; conditions: cited from earlier work
[4] = B/Pfree (unbound drug brain-to-plasma ratio)

Cc1ccc2c(c1CCC(=O)O)CC[C@@H](NS(=O)(=O)c1ccc(Cl)cc1)C2 [Compound S18886]
free drug in plasma relative to brain ([1]; drinking water dosing): > 10 × | calculated free drug concentration in brain as % of Kd at mouse TP receptor ([1]; drinking water dosing, daylight phase): ~30% | concentration at 1 day ([1]; mouse, brain, oral, dosing by drinking water, day 1, daylight phase, read-out: Free S18886 brain level): 0.093 nM | concentration at 2 day ([1]; mouse, brain, oral, dosing by drinking water, day 2, daylight phase, read-out: Free S18886 brain level): 0.117 nM | Kp at 1 h ([2]; B/P (brain-to-plasma ratio)): 0.02 | Kp at 4 h ([2]; B/P (brain-to-plasma ratio)): 0.05 | Kp at 1 h [2, 4]: 0.04 | Kp at 4 h [2, 4]: 0.08 | concentration at 1 h ([2]; Brain): 42.4 ng/mL | concentration at 4 h ([2]; Brain): 9 ng/mL | concentration at 1 h ([2]; Plasma): 1710 ng/mL | concentration at 4 h ([2]; Plasma): 190 ng/mL | Aβ levels ([3]; Tg2576 mice, drinking water): reduced Aβ levels | plaque load ([3]; long-term treatment, relative to untreated mice): significant diminution of plaque load
